According to US9604933B2, “Pyrazolochalcones as potential anticancer agents” (COUNCIL OF SCIENTIFIC AND INDUSTRIAL RESEARCH, priority 2013, dated 2017):
Where two headings read alike, the source gives them in different places.

Columns and labels:
[1] = system: HT29; test: NCI SRB cytotoxicity, colon HT29; format: cell-based; conditions: Homo sapiens, HT-29, 48 h exposure
Method in brief: (§1)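 The NCI protocol is applied: 48-hour continuous treatment across a tenfold dilution series of at least five points, then sulforhodamine B assay of protein content. GI50, TGI and LC50 are calculated from the resulting curves.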

[2] = system: Colon; test: NCI SRB cytotoxicity, colon panel average; format: cell-based, human; conditions: average of cell lines
Method in brief: (§2)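 Dose–response measured per cell line at ≥5 concentrations (10-fold steps) under 48 h continuous exposure. Cell growth assessed by SRB protein assay; GI50, TGI and LC50 computed against DMSO control.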

[3] = system: HOP-62; test: NCI SRB cytotoxicity, non-small cell lung HOP-62; format: cell-based; conditions: Homo sapiens, 48 h exposure
Method in brief: as §1

[4] = system: Breast; test: NCI SRB cytotoxicity, breast panel average; format: cell-based, human; conditions: average of cell lines
Method in brief: as §2

[5] = system: HS 578T; test: NCI SRB cytotoxicity, breast HS 578T; format: cell-based; conditions: Homo sapiens, 48 h exposure
Method in brief: as §1

[6] = system: human tumor cell lines; test: NCI SRB cytotoxicity, all fifty nine human tumor cell lines; format: cell-based; set-up: Log10 TGI mean graph midpoint (MG_MID): unit not given here; conditions: for GI50: Homo sapiens
Method in brief: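 NCI protocol: each compound tested at a minimum of five 10-fold dilutions with 48 h continuous exposure, growth estimated by sulforhodamine B protein staining. GI50, TGI (0% growth) and LC50 derived against DMSO control; growth expressed as percent of untreated control cells.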

[7] = system: A549/ATCC; test: NCI SRB cytotoxicity, non-small cell lung A549/ATCC; format: cell-based; conditions: Homo sapiens, 48 h exposure
Method in brief: as §1

[8] = system: OVCAR-3; test: NCI SRB cytotoxicity, ovarian OVCAR-3; format: cell-based; conditions: Homo sapiens, 48 h exposure
Method in brief: as §1

[9] = system: UACC-62; test: NCI SRB cytotoxicity, melanoma UACC-62; format: cell-based; conditions: Homo sapiens, 48 h exposure
Method in brief: as §1

[10] = system: Prostate; test: NCI SRB cytotoxicity, prostate panel average; format: cell-based, human; conditions: average of cell lines
Method in brief: as §2

[11] = system: SW-620; test: NCI SRB cytotoxicity, colon SW-620; format: cell-based; conditions: Homo sapiens, 48 h exposure
Method in brief: as §1

[12] = system: Ovarian; test: NCI SRB cytotoxicity, ovarian panel average; format: cell-based, human; conditions: average of cell lines
Method in brief: as §2

[13] = system: SK-MEL-2; test: NCI SRB cytotoxicity, melanoma SK-MEL-2; format: cell-based; conditions: Homo sapiens, 48 h exposure
Method in brief: as §1

[14] = system: CAKI-1; test: NCI SRB cytotoxicity, renal CAKI-1; format: cell-based; conditions: Homo sapiens, 48 h exposure
Method in brief: as §1

[15] = system: HCT-15; test: NCI SRB cytotoxicity, colon HCT-15; format: cell-based; conditions: Homo sapiens, 48 h exposure
Method in brief: as §1

[16] = system: NCI/ADR-RES; test: NCI SRB cytotoxicity, ovarian NCI/ADR-RES; format: cell-based; conditions: Homo sapiens, 48 h exposure
Method in brief: as §1

[17] = system: MDA-MB-435; test: NCI SRB cytotoxicity, breast panel MDA-MB-435; format: cell-based; conditions: Homo sapiens, 48 h exposure
Method in brief: as §1

[18] = system: RPMI-8226; test: NCI SRB cytotoxicity, leukemia RPMI-8226; format: cell-based; conditions: Homo sapiens, 48 h exposure
Method in brief: as §1

[19] = system: ACHN; test: NCI SRB cytotoxicity, renal ACHN; format: cell-based; conditions: Homo sapiens, 48 h exposure
Method in brief: as §1

[20] = system: MDA-MB-435; test: NCI SRB cytotoxicity, melanoma MDA-MB-435; format: cell-based; conditions: Homo sapiens, Melanoma panel MDA-MB-435, 48 h exposure
Method in brief: as §1

[21] = system: NCIH322M; test: NCI SRB cytotoxicity, non-small cell lung NCIH322M; format: cell-based; conditions: Homo sapiens, NCI-H322M, 48 h exposure
Method in brief: as §1

[22] = system: OVCAR-8; test: NCI SRB cytotoxicity, ovarian OVCAR-8; format: cell-based; conditions: Homo sapiens, 48 h exposure
Method in brief: as §1

[23] = system: SF-268; test: NCI SRB cytotoxicity, CNS SF-268; format: cell-based; conditions: Homo sapiens, 48 h exposure
Method in brief: as §1

[24] = system: Leukemia; test: NCI SRB cytotoxicity, leukemia panel average; format: cell-based, human; conditions: average of cell lines
Method in brief: as §2

[25] = system: SF-539; test: NCI SRB cytotoxicity, CNS SF-539; format: cell-based; conditions: Homo sapiens, 48 h exposure
Method in brief: as §1

[26] = system: NCI-H522; test: NCI SRB cytotoxicity, non-small cell lung NCI-H522; format: cell-based; conditions: Homo sapiens, 48 h exposure
Method in brief: as §1

[27] = system: CNS; test: NCI SRB cytotoxicity, CNS panel average; format: cell-based, human; conditions: average of cell lines
Method in brief: as §2

[28] = system: HCT-116; test: NCI SRB cytotoxicity, colon HCT-116; format: cell-based; conditions: Homo sapiens, 48 h exposure
Method in brief: as §1

[29] = system: MDA-MB-231/ATCC; test: NCI SRB cytotoxicity, breast MDA-MB-231/ATCC; format: cell-based; conditions: Homo sapiens, 48 h exposure
Method in brief: as §1

[30] = system: MOLT-4; test: NCI SRB cytotoxicity, leukemia MOLT-4; format: cell-based; conditions: Homo sapiens, 48 h exposure
Method in brief: as §1

[31] = system: COLO-205; test: NCI SRB cytotoxicity, colon COLO-205; format: cell-based; conditions: Homo sapiens, 48 h exposure
Method in brief: as §1

[32] = system: HCC-2998; test: NCI SRB cytotoxicity, colon HCC-2998; format: cell-based; conditions: Homo sapiens, 48 h exposure
Method in brief: as §1

[33] = system: PC-3; test: NCI SRB cytotoxicity, prostate PC-3; format: cell-based; conditions: Homo sapiens, 48 h exposure
Method in brief: as §1

[34] = system: TK-10; test: NCI SRB cytotoxicity, renal TK-10; format: cell-based; conditions: Homo sapiens, 48 h exposure
Method in brief: as §1

[35] = Homo sapiens, read-out: Log10 GI50 (concentration in mol/L causing 50% growth inhibition) (converted)
[36] = Homo sapiens, read-out: Log10 LC50 (concentration in mol/L causing 50% cell death) (converted)

**Q.** `COc1ccc(C(=O)/C=C/c2cc(-c3cc(OC)c(OC)c(OC)c3)n[nH]2)cc1` [7e, (E)-1-(4-methoxyphenyl)-3-(3-(3,4,5-trimethoxyphenyl)-1H-pyrazol-5-yl)prop-2-en-1-one] was tested. Which GI50 [1] did it give?
**A.** 1970 nM

**Q.** What about the GI50 [2, 35] of the same compound?
**A.** 1740 nM

**Q.** And the LC50 [2, 36]?
**A.** 19100 nM

**Q.** What about the “Log10 TGI (concentration in mol/L causing total growth inhibition)” value [2] of the same compound?
**A.** −5.41 mol/L

**Q.** And the GI50 [3]?
**A.** 1760 nM

**Q.** And the GI50 [4, 35]?
**A.** 1910 nM

**Q.** And the CC50 [4, 36]?
**A.** 33900 nM

**Q.** And the “Log10 TGI (concentration in mol/L causing total growth inhibition (0% growth))” value [4]?
**A.** −5.08 mol/L

**Q.** And the GI50 [5]?
**A.** 3600 nM

**Q.** And the GI50 ([6]; across fifty nine cell lines in nine cell panels, read-out: GI50 value range)?
**A.** 180 to 29200 nM

**Q.** What about the GI50 ([6]; against human tumor cell lines, read-out: Log10 GI50 mean graph midpoint (MG_MID) (converted)) of the same compound?
**A.** 1780 nM

**Q.** And the cytotoxicity ([6]; against cancer cell lines, in words)?
**A.** significant cytotoxicity

**Q.** And the “Log10 TGI mean graph midpoint (MG_MID)” value ([6]; against human tumor cell lines)?
**A.** −5.31

**Q.** What about the LC50 ([6]; against human tumor cell lines, read-out: Log10 LC50 mean graph midpoint (MG_MID) (converted)) of the same compound?
**A.** 33900 nM

**Q.** What about the GI50 [7] of the same compound?
**A.** 2270 nM

**Q.** And the GI50 [8]?
**A.** 1740 nM

**Q.** And the GI50 [9]?
**A.** 1850 nM

**Q.** And the GI50 [10, 35]?
**A.** 1480 nM

**Q.** What about the “Log10 TGI (concentration in mol/L causing total growth inhibition (0% growth))” value [10] of the same compound?
**A.** −5.55 mol/L

**Q.** What about the GI50 [11] of the same compound?
**A.** 1620 nM

**Q.** What about the GI50 [12, 35] of the same compound?
**A.** 2400 nM

**Q.** What about the CC50 [12, 36] of the same compound?
**A.** 47900 nM

**Q.** What about the “Log10 TGI (concentration in mol/L causing total growth inhibition (0% growth))” value [12] of the same compound?
**A.** −5.15 mol/L

**Q.** And the GI50 [13]?
**A.** 4140 nM

**Q.** What about the GI50 [14] of the same compound?
**A.** 2340 nM

**Q.** And the GI50 [15]?
**A.** 1580 nM

**Q.** And the GI50 [16]?
**A.** 2700 nM

**Q.** And the GI50 [17]?
**A.** 1290 nM

**Q.** What about the GI50 [18] of the same compound?
**A.** 430 nM

**Q.** What about the GI50 [19] of the same compound?
**A.** 1960 nM

**Q.** What about the GI50 [20] of the same compound?
**A.** 2200 nM

**Q.** What about the GI50 [21] of the same compound?
**A.** 1920 nM

**Q.** What about the GI50 [22] of the same compound?
**A.** 2430 nM

**Q.** And the GI50 [23]?
**A.** 1990 nM

**Q.** What about the GI50 [24, 35] of the same compound?
**A.** 1200 nM

**Q.** And the CC50 [24, 36]?
**A.** 0.0001 mol/L

**Q.** And the “Log10 TGI (concentration in mol/L causing total growth inhibition (0% growth))” value [24]?
**A.** −5.18 mol/L

**Q.** And the GI50 [25]?
**A.** 1620 nM

**Q.** What about the GI50 [26] of the same compound?
**A.** 1470 nM

**Q.** What about the GI50 [27, 35] of the same compound?
**A.** 1660 nM

**Q.** What about the LC50 [27, 36] of the same compound?
**A.** 24500 nM

**Q.** What about the “Log10 TGI (concentration in mol/L causing total growth inhibition (0% growth))” value [27] of the same compound?
**A.** −5.46 mol/L

**Q.** And the GI50 [28]?
**A.** 1730 nM

**Q.** What about the GI50 [29] of the same compound?
**A.** 1880 nM

**Q.** What about the GI50 [30] of the same compound?
**A.** 2670 nM

**Q.** And the GI50 [31]?
**A.** 1730 nM

**Q.** And the GI50 [32]?
**A.** 1780 nM

**Q.** What about the GI50 [33] of the same compound?
**A.** 1510 nM

**Q.** What about the GI50 [34] of the same compound?
**A.** 2220 nM
